According to paper PMC10195144, “Purification and characterization of a cold-active myrosinase from marine Pseudomonas oleovorans SuMy07” (Acta Biochimica et Biophysica Sinica, 2023):

Tested on: T1, myrosinase of SuMy07
T1 construct: gene beta-thioglucoside glucohydrolase; native enzyme purified from the marine isolate (ultrafiltration, ammonium sulfate, Superdex 200); two subunits of 65 kDa
Assay: double-reciprocal plot of sinigrin hydrolysis
Assay type: biochemical, Pseudomonas oleovorans
Conditions: pH 7.0, 25 °C

## C=CC/C(=N/OS(=O)(=O)O)S[C@@H]1O[C@H](CO)[C@@H](O)[C@H](O)[C@H]1O [sinigrin hydrate]
  Km: 1400 µM
